In patent US7238716B2, “Alkanoic acid derivatives process for their production and use thereof” (Takeda Pharmaceuticals Company Limited, priority 2000, dated 2007) one finds inhibition in vivo, EC50 and melting point data, which are given here for two compounds.

Like-named read-outs stand apart in the source and are kept apart here.

The subject of data set [1] is KKAY mice. Briefly: Hypoglycemic and hypolipidemic actions in mice (Test Example 1). The class given is in vivo. The conditions noted are these: Mus musculus, po, 96 h, 0.005% in powdery diet, four days. From the text: Test compounds were mixed in a powdery diet (CE-2, Japan Clea) at the concentration of 0.01% (compounds of Examples 7, 26, 29, 32) or 0.005% (compounds of Examples 1, 11, 15, 18, 24, 36, 37, 41, 48, 50, 51, 52, 58, 62, 79, 83, 88, 90, 91, 92, 93, 97, 107, 110, 115, 119, 122, 125, 129 and 130), and freely given to KKAY mice (11 to 12 weeks old, 5 mice in a group), a model of type 2 diabetes mellitus, for four days. During this period, water was given freely. Blood was sampled from orbital venous plexus, and glucose and triglyceride levels in plasma separated from blood were determined enzymatically using L type Wako Glu2 (Wako Pure Chemical Industries, Ltd.) or L type Wako TG.H (Wako Pure Chemical Industries, Ltd.), respectively.
In the Table, “hypoglycemic action (%)” means a percent reduction (%) of the glucose level in the test compound administration group when that of the test compound non-administration group is taken as 100%. In addition, the “hypolipidemic action (%)” means a percent reduction (%) of the triglyceride level in the test compound administration group when that of the test compound non-administration group is taken as 100%.

Data set [2] deals with T1, PPARγ-RXRα heterodimer (Homo sapiens, UniProt P37231).
T1 construct: expressed in transfected cells; host or cells: CHO-K1
T1 sequence (P37231 1-477 isoform P37231-2): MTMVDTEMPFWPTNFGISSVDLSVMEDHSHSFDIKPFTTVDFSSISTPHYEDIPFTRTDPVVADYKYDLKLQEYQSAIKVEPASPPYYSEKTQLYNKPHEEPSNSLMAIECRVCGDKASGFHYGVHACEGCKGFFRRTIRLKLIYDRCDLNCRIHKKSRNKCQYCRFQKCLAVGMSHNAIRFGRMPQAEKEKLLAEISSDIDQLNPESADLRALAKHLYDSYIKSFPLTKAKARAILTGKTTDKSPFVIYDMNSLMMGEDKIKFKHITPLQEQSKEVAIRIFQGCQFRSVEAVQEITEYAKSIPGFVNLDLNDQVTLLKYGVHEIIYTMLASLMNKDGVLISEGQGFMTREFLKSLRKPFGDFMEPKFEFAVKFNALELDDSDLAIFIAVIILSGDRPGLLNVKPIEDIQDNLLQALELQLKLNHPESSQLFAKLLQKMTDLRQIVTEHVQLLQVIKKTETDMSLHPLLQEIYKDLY
T1 sequence (P19793 1-462 partner): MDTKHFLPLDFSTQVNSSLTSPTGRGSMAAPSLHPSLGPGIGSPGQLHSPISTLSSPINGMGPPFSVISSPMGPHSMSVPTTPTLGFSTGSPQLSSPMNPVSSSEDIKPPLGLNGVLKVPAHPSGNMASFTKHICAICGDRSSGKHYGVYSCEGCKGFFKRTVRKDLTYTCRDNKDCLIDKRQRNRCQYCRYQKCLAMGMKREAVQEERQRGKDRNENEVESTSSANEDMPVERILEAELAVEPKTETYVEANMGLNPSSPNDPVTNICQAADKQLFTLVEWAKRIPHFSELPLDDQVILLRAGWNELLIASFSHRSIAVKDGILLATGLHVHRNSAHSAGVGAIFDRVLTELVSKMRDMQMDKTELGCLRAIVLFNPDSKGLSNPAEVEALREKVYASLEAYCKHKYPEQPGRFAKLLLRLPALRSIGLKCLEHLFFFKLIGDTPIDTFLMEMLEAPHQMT
Kind of data set: PPARγ-RXRα heterodimer ligand activity, luciferase reporter in PPARγ:RXRα:4ERPP/CHO-K1 cells (Test Example 3). In kind it is cell-based. The conditions noted are these: concentration for 50% of the maximum fold induction of luciferase activity; 48 hours, CHO-K1 cells. The protocol: A PPARγ:RXRα:4ERPP/CHO-K1 cells obtained in Reference Example 5 described later were cultured in HAM F12 medium (produced by NISSUI SEIYAKU) containing 10% Fetal bovine serum (produced by Life Technologies, Inc., USA) and then inoculated to a 96-well white plate (produced by Corning Costar Corporation, USA) at the density of 2×10^4 cells/well, and cultured in a CO2 gas incubator at 37° C. overnight.
After washing the 96 well white plate with PBS (Phosphate-buffered saline), 90 μl of HAM F12 medium containing 0.1% fatty acid-free bovine serum albumin (BSA) and 10 μl of test compound were added, which was cultured in a CO2 gas incubator at 37° C. for 48 hours. After removing the medium, 40 μl of PIKKAGENE 7.5 (produced by Wako Pure Chemical Industries, Ltd.) was added. After stirring, the luciferase activity was determined using Lumistar (produced by BMG Labtechnologies GmbH, Germany).
A fold induction was calculated based on the luciferase activity of each test compound by taking the luciferase activity in the test compound non administration group as 1. The values of the test compound, concentration and the fold induction were analyzed using PRISM 2.01 (produced by GraphPad Software Inc. USA) to calculate the EC50 values, the effective concentration of a test compound for 50% of the maximum fold induction.
After a CHO-K1 cell cultured in a 750 ml tissue culture flask (produced by Corning-Costar Corporation, USA) containing HAM F12 medium (produced by NISSUI SEIYAKU) supplemented with 10% Fetal Bovine Serum (produced by Life Technologies, Inc., USA) was scraped by treating with 0.5 g/L trypsin-0.2 g/L EDTA (ethylenediaminetetraacetic acid) (produced by Life Technologies, Inc., USA), the cell was washed with PBS (phosphate buffered saline) (produced by Life Technologies, Inc., USA), centrifuged (1000 rpm, 5 minutes), and then suspended in PBS. Subsequently, a DNA was introduced into the cell under the condition shown below using GENE PULSER (produced by Bio-Rad Laboratories, USA).
Namely, to a cuvette having a 0.4 cm gap, added were 8×10^6 cells and 10 μg of plasmid pVgRXR2-hPPARγ obtained in Reference Example 3 and 10 μg of reporter plasmid pGL3-4ERPP-TK neo obtained in Reference Example 4, which was subjected to electroporation at the voltage of 0.25 kV under the capacitance of 960 μF. Subsequently, the cell was transferred into a HAM F12 medium containing 10% Fetal Bovine. Serum and cultured for 24 hours. Then the cell was scraped again and centrifuged, and then suspended in HAM F12 medium containing 10% Fetal Bovine Serum supplemented with 500 μg/ml of GENETICIN (produced by Life Technologies, Inc., USA) and 250 μg/ml of ZEOCIN (produced by Invitrogen, USA). The suspension was diluted to the density of 10^4 cells/ml, and inoculated to a 96-well plate (produced by Corning Costar Corporation, USA), which was cultured in a CO2 gas incubator at 37° C., whereby obtaining a GENETICIN- and ZEOCIN-resistant transformant.
Subsequently, after the transformant cell line thus obtained was cultured in a 24-well plate (produced by Corning Costar Corporation, USA), selected was a cell line, PPARγ:RXRα:4ERPP/CHO-K1 cell, in which the luciferase was expressed and induced by addition of 10 μM pioglitazone hydrochloride.
A general note: Reporter assays use an easily measured gene product as a stand-in for the process of interest.

[3] abbreviates: percent reduction of plasma glucose level vs non-administration group, read-out: hypoglycemic action (%).
Setting [4] is: percent reduction of plasma triglyceride level vs non-administration group, read-out: hypolipidemic action (%).

In the case of `Cc1sc(-c2ccccc2)nc1COc1ccc(COc2ccccc2CC(=O)O)cn1` [Example 122, 2-[2-[[6-[(5-methyl-2-phenyl-4-thiazolyl)methoxy]-3-pyridyl]methoxy]phenyl]acetic acid], the melting point – broadly, the temperature of the solid-liquid transition – is 173 to 174 °C. Besides, the inhibition in vivo at 0.005 % in data set [1] (setting [3]) amounted to 52%. Besides, the inhibition in vivo at 0.005 % in data set [1] (setting [4]) was found to be 67%. Besides, in data set [2], the EC50 (in general, the midpoint of the concentration-response curve) came to 17 nM.

For `Cc1oc(-c2ccccc2)nc1CCOc1ccc(COc2ccccc2CC(=O)O)cn1` [Example 119, 2-[2-[[6-[2-(5-methyl-2-phenyl-4-oxazolyl)ethoxy]-3-pyridyl]methoxy]phenyl]acetic acid], the melting point lay within 159 to 160 °C. In addition, the inhibition in vivo at 0.005 % in data set [1] (setting [3]) was determined as 40%. Also, in data set [1] (setting [4]), the inhibition in vivo at 0.005 % was 33%. A half-maximal response in data set [2] (EC50) required 220 nM.
